≈ marks a conversion by molar mass, not a printed value. Each block holds one molecule with its values, some of them ahead of it. Where a SMILES comes first, the peptide text is derived from it.
Tests used:
[1] = Solubility of tyrosine-containing dipeptides
[2] = reference #1; cited from earlier work
CHO cell line A = assay: Fed-batch shake flask production culture in serum-free defined medium: titer and viability; format: cell-based, Chinese hamster; conditions: culture period 13 to 14 days
Experimental: (§1) Materials and Methods: Dipeptides were purchased from Bachem (Torrance, Calif.). Each dipeptide was dissolved in water for preparation of concentrated stock solution (100 mg/mL), followed by sterile filtration using Spin-X® filter unit (Corning Inc., Corning, N.Y.).
(§2) On Day 0, prior to inoculation of production cell lines, appropriate volumes of concentrated dipeptide stock solution were added to serum-free defined production medium to bring the final dipeptide concentration at 0.5-2.0 g/L. For controls, the same volume of water was added. Cells were inoculated at 5×10^5 cells/mL with the final culture volume of 50 mL in 250 mL flasks. The shaker flasks cultures were grown in the incubator at 36° C., with 5% CO2 and agitation rate of 160 rpm.
(§3) Cultures were fed with bolus defined feed media on Days 3, 6, and 8 with the feed volume of 5-6% on Day 3, 9% on Day 6 and 9% on Day 8. Cultures were stopped and harvested on Day 11. However, if the culture viability on Day 11 was >70%, culture duration was extended beyond day 11 by introducing 4th feed on Day 11 and 5th feed on day 13 if necessary. Feed volume on Day 11 ranged from 5% to 8%, depending on the culture performance. Day 13 feed ranged from 2.5% to 3.0%. Glucose was fed as needed with typical target concentration of 7-8 g/L.
(§4) On selective days during the production run, small volumes of cultures were taken out to assess viable cell density and % viability using the CEDEX cell counter (Roche Innovatis AG). Titer was also determined on collected samples, using the high-throughput HPLC analytical method.
Materials and Methods: CHO cell line A was cultured as in Example 2. The effect of dipeptide Ala-His (added at 1 g/L) was compared to no added dipeptide (control) and dipeptide His-Gly. The culture period was 13 to 14 days, at which point titer and viability were assessed.

CHO cell line D = assay: 6-day batch culture in serum-free defined production medium: titer and viability; format: cell-based, Chinese hamster; conditions: 1 to 4 g/L, 6 days batch culture; for titer: over the negative control
Experimental: Materials and Methods: CHO cell line D, which produces a fully human recombinant antibody, was used for this experiment. Cells were inoculated at 2×10^6 cells/mL with a final culture volume of 2.0 mL into serum-free defined production medium. Experimental samples contained the dipeptides His-Glu, Glu-His, His-Ser, and His-Gln from 1 to 4 g/L. Control wells were set up containing either no added dipeptide as a negative control, or containing peptone at 10 g/L as a positive control. The cultures were incubated as a batch culture for 6 days, at which point the cells were harvested and titer and viability determined.

CHO cell line C = assay: Fed-batch shake flask production culture in serum-free defined medium: titer, viability, growth, metabolic profiles; format: cell-based, Chinese hamster; conditions: for day 11 titer: cell line C, culture period 11 days (Example 4, FIG. 5)
Experimental: as §1, §2, §3, §4
Materials and Methods: CHO cell line C was cultured as in Example 2. The dipeptides tested were Tyr-Lys, Thr-Phe, His-Gly, Tyr-Ala, Gly-His, Tyr-His, Tyr-Val, and a combination of Tyr-His and Thr-Phe. The culture period was 11 days, at which point titer and viability were assessed.
Materials and Methods: CHO cell line C was used for this experiment, and cultured as in Example 2. Titer, viability, viable cell density, specific productivity, and cell diameter were determined each day from day 6 to 13 or 14 of cell culture. Tyr-His dipeptide was tested at 0.5 g/L and 1 g/L, and compared to the addition of no dipeptide.

CHO cells = assay: Recombinant protein expression from CHO cells in chemically defined medium (summary statements); format: cell-based, Chinese hamster; conditions: two different CHO cell lines expressing two different recombinant antibodies
[3] = supplement by itself in serum-free, peptone-free production medium

Solubility tested [1]: Not soluble
Molecule: CSCC[C@H](N)C(=O)N[C@@H](Cc1ccc(O)cc1)C(=O)O [Met-Tyr] (H-Met-Tyr-OH; N-terminus and C-terminus assumed)

Solubility tested [1]: readily soluble
Molecule: N[C@@H](Cc1ccc(O)cc1)C(=O)N[C@@H](Cc1c[nH]cn1)C(=O)O [Tyr-His] (H-Tyr-His-OH; N-terminus and C-terminus assumed)
Solubility (g/L)- ref. #1 [2]: 100 g/L (≈ 314 mM)

Solubility tested [1]: readily soluble
Molecule: NCCCC[C@H](NC(=O)[C@@H](N)Cc1ccc(O)cc1)C(=O)O [Tyr-Lys] (H-Tyr-Lys-OH; N-terminus and C-terminus assumed)
Solubility (g/L)- ref. #1 [2]: 81 g/L (≈ 262 mM)

Molecule: Ala-His
viability (CHO cell line A; Ala-His added at 1 g/L): maintain increased viability
titer (CHO cell line A; Ala-His added at 1 g/L, vs control): also improved titer, but not as much as His-Gly

Molecule: Glu-His
viability (CHO cell line D): significantly improved
titer (CHO cell line D): not significantly increased

Molecule: Gly-His
day 11 titer (CHO cell line C): adversely affected titer
productivity and culture performance (CHO cells): negative effect

Molecule: His-Gln
viability (CHO cell line D): significantly improved
titer (CHO cell line D): not significantly increased

Molecule: His-Glu
viability (CHO cell line D): significantly improved
titer (CHO cell line D): not significantly increased

Molecule: His-Gly
viability (CHO cell line A; Ala-His added at 1 g/L): better at maintaining viability
titer improvement as compared to control (CHO cell line A): more than 10%
day 11 titer (CHO cell line C): moderately improved titer
productivity and culture performance (CHO cells): improve productivity and culture performance

Molecule: His-Ser
viability (CHO cell line D): significantly improved
titer (CHO cell line D): not significantly increased

Molecule: Thr-Phe
day 11 titer (CHO cell line C): little to no effect
recombinant protein production (CHO cell line C; [3]): little to no effect
viability (CHO cell line C; [3]): little to no effect

Molecule: Tyr-Ala
day 11 titer (CHO cell line C): significantly improved titer

Molecule: Tyr-Val
day 11 titer (CHO cell line C): significantly improved titer

Source: patent US9012178B2, “Dipeptides to enhance yield and viability from cell cultures” (Amgen Inc., priority 2010, dated 2015)
